Assay results published in patent US12421230B2, “Tricyclic heteroaryl compounds useful as IRAK4 inhibitors” (BRISTOL-MYERS SQUIBB COMPANY, priority 2020, dated 2025).

Assays:
IRAK4 = molecular target: T1, IRAK4 (Homo sapiens, UniProt Q9NWZ3); experiment: IRAK4 Inhibition Assay; type: biochemical; settings: ATP 500 μM; fluoresceinated peptide 1.5 μM; IRAK4 0.6 nM; 60 min room temperature; Caliper LABCHIP
T1 sequence (Q9NWZ3 1-460): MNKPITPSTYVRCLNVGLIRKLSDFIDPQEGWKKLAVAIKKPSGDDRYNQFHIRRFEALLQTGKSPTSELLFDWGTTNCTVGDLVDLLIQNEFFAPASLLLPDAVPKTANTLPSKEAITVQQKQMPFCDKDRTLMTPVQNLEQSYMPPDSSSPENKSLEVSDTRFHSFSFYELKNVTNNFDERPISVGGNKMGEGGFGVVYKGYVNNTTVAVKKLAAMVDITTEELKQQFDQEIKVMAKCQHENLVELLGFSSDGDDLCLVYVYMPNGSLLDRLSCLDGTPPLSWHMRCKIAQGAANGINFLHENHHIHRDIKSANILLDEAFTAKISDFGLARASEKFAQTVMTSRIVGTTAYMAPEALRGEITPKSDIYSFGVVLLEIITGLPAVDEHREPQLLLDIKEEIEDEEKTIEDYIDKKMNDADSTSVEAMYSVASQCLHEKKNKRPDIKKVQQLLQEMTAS
Description: The assays were performed in U-bottom 384-well plates. The final assay volume was 30 μL prepared from 15 μL additions of enzyme and substrates (fluoresceinated peptide and ATP) and test compounds in assay buffer (20 mM HEPES pH 7.2, 10 mM MgCl2, 0.015% Brij 35 and 4 mM DTT). The reaction was initiated by the combination of IRAK4 with substrates and test compounds. The reaction mixture was incubated at room temperature for 60 min. and terminated by adding 45 μL of 35 mM EDTA to each sample. The reaction mixture was analyzed on the Caliper LABCHIP® 3000 (Caliper, Hopkinton, MA) by electrophoretic separation of the fluorescent substrate and phosphorylated product. Inhibition data were calculated by comparison to no enzyme control reactions for 100% inhibition and vehicle-only reactions for 0% inhibition. The final concentrations of reagents in the assays are ATP, 500 μM; FL-IPTSPITTTYFFFKKK peptide 1.5 μM; IRAK4, 0.6 nM; and DMSO, 1.6%.

Human whole blood = experiment: IRAK4 Whole Blood Assay; type: cell-based; settings: stimulated with TLR2 agonist lipoteichoic acid 10 μg/mL for 5 hours, IL-6 levels
Description: Human whole blood containing the anti-coagulant ACD-A was plated in 384-well plate (25 μL/well) and incubated with compounds for 60 minutes at 37° C. in a 5% CO2 incubator. The blood was stimulated with a TLR2 agonist, 10 μg/mL final concentration of lipoteichoic acid (Invivogen, San Diego, CA) in 25 μL RPMI (Gibco) for 5 hours in a 5% CO2 incubator. At the end of the incubation, plates were centrifuged at 2300 rpm for 5 minutes. Supernatants were harvested and analyzed for IL-6 levels by Flow Cytometry beads assay (BD Biosciences, San Jose, CA).

Compound: CC(C)Nc1c(C(=O)NCc2nccs2)cnc2c1[nH]c1cc(C#N)ccc12 [Example 18, 7-cyano-4-(isopropylamino)-N-(thiazol-2-ylmethyl)-5H-pyrido[3,2-b]indole-3-carboxamide]
- IC50 (IRAK4): 17 nM
- EC50 (Human whole blood): 8170 nM

Compound: CC(C)Nc1c(C(=O)NC[C@@H](F)C(C)(C)O)cnc2c1[nH]c1cc(C#N)ccc12 [Example 1, (R)-7-cyano-N-(2-fluoro-3-hydroxy-3-methylbutyl)-4-(isopropylamino)-5H-pyrido [3,2-b]indole-3-carboxamide]
- IC50 (IRAK4): 2 nM
- EC50 (Human whole blood): 430 nM

Compound: C[C@@H](CO)Nc1c(C(=O)NCCC(C)(C)O)cnc2c1[nH]c1cc(C#N)ccc12 [Example 30, (S)-7-cyano-N-(3-hydroxy-3-methylbutyl)-4-((1-hydroxypropan-2-yl)amino)-5H-pyrido[3,2-b]indole-3-carboxamide]
- IC50 (IRAK4): 5.3 nM
- EC50 (Human whole blood): 3380 nM

Compound: CC(C)Nc1c(C(=O)NCCC(C)(C)O)cnc2c1[nH]c1cc(C#N)ccc12 [Example 5, 7-cyano-N-(3-hydroxy-3-methylbutyl)-4-(isopropylamino)-5H-pyrido[3,2-b]indole-3-carboxamide]
- IC50 (IRAK4): 3.8 nM
- EC50 (Human whole blood): 1440 nM

Compound: CC(C)Nc1c(C(=O)NCCN2CCOCC2)cnc2c1[nH]c1cc(C#N)ccc12 [Example 35, 7-cyano-4-(isopropylamino)-N-(2-morpholinoethyl)-5H-pyrido[3,2-b]indole-3-carboxamide]
- IC50 (IRAK4): 3 nM
- EC50 (Human whole blood): 770 nM

Compound: CC(C)Nc1c(C(=O)NCCN2CCS(=O)(=O)CC2)cnc2c1[nH]c1cc(C#N)ccc12 [Example 62, 7-cyano-N-(2-(1,1-dioxidothiomorpholino)ethyl)-4-(isopropylamino)-5H-pyrido[3,2-b]indole-3-carboxamide]
- IC50 (IRAK4): 3.3 nM
- EC50 (Human whole blood): 12300 nM

Compound: CC(C)(O)[C@H](F)CNC(=O)c1cnc2c([nH]c3cc(C#N)ccc32)c1NC1CC(F)(F)C1 [Example 3, (R)-7-cyano-4-((3,3-difluorocyclobutyl)amino)-N-(2-fluoro-3-hydroxy-3-methylbutyl)-5H-pyrido[3,2-b]indole-3-carboxamide]
- IC50 (IRAK4): 19 nM
- EC50 (Human whole blood): 2470 nM

Compound: CC(C)Nc1c(C(=O)NC[C@@H](F)C(C)(C)O)cnc2c1[nH]c1cc(-c3cncs3)ccc12 [Example 66, (R)—N-(2-fluoro-3-hydroxy-3-methylbutyl)-4-(isopropylamino)-7-(thiazol-5-yl)-5H-pyrido[3,2-b]indole-3-carboxamide]
- IC50 (IRAK4): 8.6 nM
- EC50 (Human whole blood): 1240 nM

Compound: CC(C)(O)CCNC(=O)c1cnc2c([nH]c3cc(C#N)ccc32)c1N [Example 54, 4-amino-7-cyano-N-(3-hydroxy-3-methylbutyl)-5H-pyrido[3,2-b] indole-3-carboxamide]
- IC50 (IRAK4): 14 nM
- EC50 (Human whole blood): > 10000 nM

Compound: CC(C)(O)[C@H]1C[C@H](NC(=O)c2cnc3c([nH]c4cc(C#N)ccc43)c2NC2CC2)C1 [Example 44, 7-cyano-4-(cyclopropylamino)-N-((1R,3R)-3-(2-hydroxypropan-2-yl)cyclobutyl)-5H-pyrido[3,2-b]indole-3-carboxamide]
- IC50 (IRAK4): 3.1 nM
- EC50 (Human whole blood): 510 nM

Compound: COCCNC(=O)c1cnc2c([nH]c3cc(C#N)ccc32)c1NC(C)C [Example 17, 7-cyano-4-(isopropylamino)-N-(2-methoxyethyl)-5H-pyrido[3,2-b]indole-3-carboxamide]
- IC50 (IRAK4): 13 nM
- EC50 (Human whole blood): 4730 nM

Compound: CC(C)Nc1c(-c2cc(C3CCCCN3)no2)cnc2c1[nH]c1cc(C#N)ccc12 (stereo not drawn) [Example 80, 4-(isopropylamino)-3-(3-(piperidin-2-yl)isoxazol-5-yl)-5H-pyrido[3,2-b]indole-7-carbonitrile]
- IC50 (IRAK4): 18 nM
- EC50 (Human whole blood): 3310 nM

Compound: CC(C)Nc1c(C(=O)NCCC(C)(C)NC(=O)C2CC2)cnc2c1[nH]c1cc(C#N)ccc12 [Example 59, 7-cyano-N-(3-(cyclopropanecarboxamido)-3-methylbutyl)-4-(isopropylamino)-5H-pyrido[3,2-b]indole-3-carboxamide]
- IC50 (IRAK4): 5.4 nM
- EC50 (Human whole blood): > 10000 nM

Compound: CC(C)Nc1c(C(=O)NCCC2CC2)cnc2c1[nH]c1cc(C#N)ccc12 [Example 34, 7-cyano-N-(2-cyclopropylethyl)-4-(isopropylamino)-5H-pyrido[3,2-b]indole-3-carboxamide]
- IC50 (IRAK4): 3.4 nM
- EC50 (Human whole blood): 580 nM

Compound: CC(C)(O)CCNC(=O)c1cnc2c([nH]c3cc(C#N)ccc32)c1NC(C)(C)C [Example 40, 4-(tert-butylamino)-7-cyano-N-(3-hydroxy-3-methylbutyl)-5H-pyrido[3,2-b]indole-3-carboxamide]
- IC50 (IRAK4): 6.3 nM
- EC50 (Human whole blood): 1600 nM

Compound: CC(C)Nc1c(C(=O)NCc2cocn2)cnc2c1[nH]c1cc(C#N)ccc12 [Example 14, 7-cyano-4-(isopropylamino)-N-(oxazol-4-ylmethyl)-5H-pyrido[3,2-b]indole-3-carboxamide]
- IC50 (IRAK4): 19 nM
- EC50 (Human whole blood): 3500 nM

Compound: CC(C)Nc1c(C(=O)NCC(F)(F)CN)cnc2c1[nH]c1cc(C#N)ccc12 [Example 51, N-(3-amino-2,2-difluoropropyl)-7-cyano-4-(isopropylamino)-5H-pyrido[3,2-b]indole-3-carboxamide]
- IC50 (IRAK4): 16 nM
- EC50 (Human whole blood): 1550 nM

Compound: CC(C)Nc1c(C(=O)NCC2CCS(=O)(=O)C2)cnc2c1[nH]c1cc(C#N)ccc12 (stereo not drawn) [Example 61, 7-cyano-N-((1,1-dioxidotetrahydrothiophen-3-yl)methyl)-4-(isopropylamino)-5H-pyrido[3,2-b]indole-3-carboxamide]
- IC50 (IRAK4): 7.2 nM
- EC50 (Human whole blood): > 20000 nM

Compound: CC(C)Nc1c(C(=O)NC2CCN(S(C)(=O)=O)CC2)cnc2c1[nH]c1cc(C#N)ccc12 [Example 63, 7-cyano-4-(isopropylamino)-N-(1-(methylsulfonyl)piperidin-4-yl)-5H-pyrido[3,2-b]indole-3-carboxamide]
- IC50 (IRAK4): 7.1 nM
- EC50 (Human whole blood): > 20000 nM

Compound: CC(O)CCNC(=O)c1cnc2c([nH]c3cc(C#N)ccc32)c1NC(C)C (stereo not drawn) [Example 25, 7-cyano-N-(3-hydroxybutyl)-4-(isopropylamino)-5H-pyrido[3,2-b]indole-3-carboxamide]
- IC50 (IRAK4): 3.5 nM
- EC50 (Human whole blood): 1500 nM

Compound: CCNc1c(C(=O)NC[C@@H](F)C(C)(C)O)cnc2c1[nH]c1cc(C#N)ccc12 [Example 2, (R)-7-cyano-4-(ethylamino)-N-(2-fluoro-3-hydroxy-3-methylbutyl)-5H-pyrido[3,2-b]indole-3-carboxamide]
- IC50 (IRAK4): 1.6 nM
- EC50 (Human whole blood): 1300 nM

Compound: CC(C)(O)[C@H](F)CNC(=O)c1cnc2c([nH]c3cc(C#N)ccc32)c1NC1CCC1 [Example 4, (R)-7-cyano-4-(cyclobutylamino)-N-(2-fluoro-3-hydroxy-3-methylbutyl)-5H-pyrido[3,2-b]indole-3-carboxamide]
- IC50 (IRAK4): 2 nM
- EC50 (Human whole blood): 1990 nM

Compound: CC(C)Nc1c(C(=O)N[C@H]2C[C@H](C(C)(C)O)C2)cnc2c1[nH]c1cc(C#N)ccc12 [Example 39, 7-cyano-N-((1R,3R)-3-(2-hydroxypropan-2-yl)cyclobutyl)-4-(isopropylamino)-5H-pyrido[3,2-b] indole-3-carboxamide]
- IC50 (IRAK4): 3.9 nM
- EC50 (Human whole blood): > 20000 nM

Compound: CC(C)Nc1c(-c2cn(C3CCNCC3)nn2)cnc2c1[nH]c1cc(C#N)ccc12 [Example 75, 4-(isopropylamino)-3-(1-(piperidin-4-yl)-1H-1,2,3-triazol-4-yl)-5H-pyrido[3,2-b]indole-7-carbonitrile]
- IC50 (IRAK4): 1.5 nM
- EC50 (Human whole blood): 930 nM

Compound: CC(C)(O)CCNC(=O)c1cnc2c([nH]c3cc(C#N)ccc32)c1NCC(F)F [Example 36, 7-cyano-4-((2,2-difluoroethyl)amino)-N-(3-hydroxy-3-methylbutyl)-5H-pyrido[3,2-b]indole-3-carboxamide]
- IC50 (IRAK4): 9.1 nM
- EC50 (Human whole blood): 3320 nM

Compound: CC(C)(O)[C@H](F)CNC(=O)c1cnc2c([nH]c3cc(C#N)ccc32)c1NC1COC1 [Example 22, (R)-7-cyano-N-(2-fluoro-3-hydroxy-3-methylbutyl)-4-(oxetanylamino)-5H-pyrido[3,2-b]indole-3-carboxamide]
- IC50 (IRAK4): 2.1 nM
- EC50 (Human whole blood): 230 nM

Compound: CC(C)Nc1c(C(=O)N[C@H]2CC[C@H](N)CC2)cnc2c1[nH]c1cc(C#N)ccc12 [Example 12, N-((1R,4R)-4-aminocyclohexyl)-7-cyano-4-(isopropylamino)-5H-pyrido[3,2-b]indole-3-carboxamide]
- IC50 (IRAK4): 8.6 nM
- EC50 (Human whole blood): 2720 nM
